# Results reported in patent publication US4550170A, “6-Phenyl-2,3,5,6-tetrahydroimidazo-[2,1-b]-thiazole derivatives” (Institut Organicheskoi Khimii Akademii Nauk Ukrainskoi SSR, priority 1984, dated 1985).
# Where a name gives a salt, the structure may show the parent alone. Read-outs that look alike come from different tables or passages of the source.
# How the values were obtained:
# [1] = tested on: IgE antibodies in respiratory organs
# Experimental: The local production of IgE-antibodies in trachea and lungs of rats of the lines WAY, August with a mass of 250-300 g was induced by means of a successive (with the interval of 40 minutes) dropping a 0.1% solution of histamine and ambrosia allergen (10,000 PNU/ml) into both nasal passages. […] One day after the administration of the allergen IgE-antibodies were determined in homogenates of trachea and lungs prepared at the rate of 0.1 ml of a physiological solution per 10 mg of the tissue by the method of indirect degranulation of obese cells.
# [2] = tested on: Staphylococcus aureus, Proteum, Bacillus pyocyanes; assay: antibacterial activity in vitro, serial dilutions; type: cell-based; conditions: relative to compound (II)
# Experimental: In the experiments in vitro the antibacterial activity of the compounds of the present invention was studied. To this end, serial dilutions of compounds (II) and (III) with a concentration of from 1% to 0.00001% were prepared and 0.1 ml of a microbal suspension was added thereto (Staphylococcus aureus, Proteum, Bacillus pyocyanes). The microbal load for staphylococcus was about 1×10^5 cells/ml, for Proteum and Bacillus pyocyanes -1×10^4 c cells/ml. […] The bacteria were incubated along with the compounds according to the present invention at the temperature of 37° C. […] Inoculations were effected by spreading 0.1 ml of a suspension of bacteria in a corresponding dilution of the compounds over the surface of an agar dish using a glass spatula.
# [3] = tested on: virus of vesicular stomatitis; type: cell-based
# [4] = tested on: allergic reaction of the delayed type in mice; assay: delayed-type (contact) hypersensitivity reaction to dinitrochlorobenzene, ear thickness in mice; type: in vivo, CBA mice; conditions: for Ear thickness, Control, Average value / Ear thickness, Control, Range of fluctuations: control (right) ear; for Ear thickness, Experiment, Average value / Ear thickness, Experiment, Range of fluctuations: test (left) ear
# human tonsillocytes [5] = assay: antibody-dependent cytotoxicity of human tonsillocytes, 51Cr release; type: cell-based
# Source text: On this basis, the effect of one of the lest toxic compound (III) out of those of the present invention was studied for the antibody-dependent cytolytic activity of cells. […] The cytolytic effect of tonsillocytes was studied by the radioisotope method using Cr^51. On doing so, the deterioration of target cells (chicken's erythrocytes) by tonsil lymphocytes was regarded as spontaneous cytolysis, while the destruction of the target cells loaded, in addition to the isotopic tracer, with homologous antibodies in the sublytic dose was considered as antibody-dependent cytolysis. […] Afterwards they were twice washed by means of Medium 199 using centrifugation (105 g, 10 minutes). […] The degree of destruction of the target cells was determined radiometrically by the outcome of Cr^51 into the liquid phase.
# [6] = tested on: delayed-type hypersensitivity reaction; assay: delayed-type hypersensitivity reaction to rat's thymocytes in mice (popliteal lymph nodes); type: in vivo; conditions: for effect on the development of the delayed-type hypersensitivity reactions: Table 3 (mice and guinea pigs)
# [7] = prior art, hydrochloride, cited from earlier work
# human tonsillocytes [8] = assay: natural cytotoxicity (natural killers) of human tonsillocytes, 51Cr release; type: cell-based; conditions: for Yield of 51Cr from target cells, natural cytotoxicity, average value: (III) significant P below 0.05
# Source text: The cytolytic effect of tonsillocytes was studied by the radioisotope method using Cr^51. On doing so, the deterioration of target cells (chicken's erythrocytes) by tonsil lymphocytes was regarded as spontaneous cytolysis, while the destruction of the target cells loaded, in addition to the isotopic tracer, with homologous antibodies in the sublytic dose was considered as antibody-dependent cytolysis. […] Afterwards they were twice washed by means of Medium 199 using centrifugation (105 g, 10 minutes). […] The degree of destruction of the target cells was determined radiometrically by the outcome of Cr^51 into the liquid phase.
# immune system = conditions: prior art; cited from earlier work
# splenocytes = assay: effect on cyclic nucleotides (c-AMP, c-GMP) and phosphodiesterase of c-AMP; type: cell-based
# [9] = tested on: delayed-type hypersensitivity reaction; assay: delayed-type hypersensitivity reaction to 2,4-dinitrochlorobenzene in guinea pigs; type: in vivo
# [10] = 100 μg/ml, certainty: (II), (III) below 0.05, (I), levamizole above 0.05
# [11] = 500 μg/ml, certainty: all below 0.05
# [12] = second levamizole line, printed 2.5 mg/kg
# [13] = 100 μg/ml, negative = test value exceeded the control
smiles,measurement,setting,value
"c1ccc([C@H]2CN3CCSC3=N2)cc1 [levamizole, L-(-)-2,3,5,6-tetrahydro-6-phenylimidazo-[2,1-b]-thiazole hydrochloride, reference compound]","Percent of degranulated mastocytes, Lungs",[1]; [10],18.1 ± 1.9%
same,"Percent of degranulated mastocytes, Trachea",[1]; [10],17.3 ± 1.8%
same,"Percent of degranulated mastocytes, Lungs",[1]; [11],6.1 ± 1.1%
same,"Percent of degranulated mastocytes, Trachea",[1]; [11],7.4 ± 0.2%
same,concentration inhibiting the formation of the IgE-antibodies in the respiratory organs,"[1]; rat, in vivo",500 µg/mL
same,antibacterial activity lower by a factor of,[2],2
same,Degree of inhibition of the virus reproduction,[3]; 1 μg/ml,0 times
same,Degree of inhibition of the virus reproduction,[3]; 10 μg/ml,10 times
same,"Ear thickness, Control, Average value",[4]; 2.5 mg/kg per os,162.3 μm
same,"Ear thickness, Control, Range of fluctuations",[4]; 2.5 mg/kg per os,130-200 μm
same,"Ear thickness, Experiment, Average value",[4]; 2.5 mg/kg per os,210.0 μm
same,"Ear thickness, Experiment, Range of fluctuations",[4]; 2.5 mg/kg per os,160-280 μm
same,dose inhibiting the development of the contact hypersensitivity,[4]; per os,25 mg/kg
same,"Ear thickness, Control, Average value",[4]; [12],179.2 μm
same,"Ear thickness, Control, Range of fluctuations",[4]; [12],160-190 μm
same,"Ear thickness, Experiment, Average value",[4]; [12],179.2 μm
same,"Ear thickness, Experiment, Range of fluctuations",[4]; [12],170-190 μm
same,"Yield of 51Cr from target cells, antibody dependent cytotoxicity, range of fluctuations",human tonsillocytes [5]; 1 μg/ml,1.0-32.0%
same,"Yield of 51Cr from target cells, antibody dependent cytotoxicity, average","human tonsillocytes [5]; 1 μg/ml, (III) significant P below 0.05",14.0%
same,"Yield of 51Cr from target cells, antibody dependent cytotoxicity, range of fluctuations",human tonsillocytes [5]; 10 μg/ml,1.0-36.0%
same,"Yield of 51Cr from target cells, antibody dependent cytotoxicity, average","human tonsillocytes [5]; 10 μg/ml, (III) significant P below 0.05",14.2%
same,"Yield of 51Cr from target cells, antibody dependent cytotoxicity, range of fluctuations",human tonsillocytes [5]; 100 μg/ml,8.0-39.0%
same,"Yield of 51Cr from target cells, antibody dependent cytotoxicity, average","human tonsillocytes [5]; 100 μg/ml, levamizole significant P below 0.05",22.8%
same,minimal effective concentration,"human tonsillocytes [5]; Homo sapiens, read-out: concentration stimulating the antibody-dependent cytolytic activity",100 µg/mL
same,effect on the development of the delayed-type hypersensitivity reactions,[6]; 100 μg/ml,surely stimulates
same,"Difference in masses of popliteal lymph nodes in the control and test limb, Average value",[6]; [13],-0.9 ± 0.13 mg
same,"Difference in masses of popliteal lymph nodes in the control and test limb, Average value",[6]; 500 μg/ml,+1.0 ± 0.13 mg
same,"Difference in masses of popliteal lymph nodes in the control and test limb, Average value","[6]; 1,000 μg/ml",+1.2 ± 0.12 mg
same,effect on the development of the delayed-type hypersensitivity reactions,"[6]; 500 and 1,000 μg/ml",effectively inhinits
same,toxicity and side effects,[7],high toxicity and a high frequency of the observed side effects
same,toxicity and side effects,[7]; listed as Levamizole,toxic and has diverse side effects
same,"Yield of 51Cr from target cells, natural cytotoxicity, range of fluctuations",human tonsillocytes [8]; 1 μg/ml,3.0-41.0%
same,"Yield of 51Cr from target cells, natural cytotoxicity, average value",human tonsillocytes [8]; 1 μg/ml,16.2%
same,"Yield of 51Cr from target cells, natural cytotoxicity, range of fluctuations",human tonsillocytes [8]; 10 μg/ml,5.0-53.0%
same,"Yield of 51Cr from target cells, natural cytotoxicity, average value",human tonsillocytes [8]; 10 μg/ml,18.4%
same,"Yield of 51Cr from target cells, natural cytotoxicity, range of fluctuations",human tonsillocytes [8]; 100 μg/ml,5.0-49.0%
same,"Yield of 51Cr from target cells, natural cytotoxicity, average value",human tonsillocytes [8]; 100 μg/ml,20.5%
same,activity of natural killers of tonsil cells,human tonsillocytes [8]; levamizole,not noticeably changed
same,effect in respect of various immunological responses,immune system,stimulating effect in respect of various immunological responses
same,concentrations of c-AMP and c-GMP,splenocytes,reciprocal variations of concentrations of c-AMP and c-GMP
same,"Difference in temperature of the pad surfaces, Average value",[9]; [13],-1.3 ± 0.06 °C
same,"Difference in thickness of control and test talipes, Average value",[9]; [13],-0.75 ± 0.08 mm
same,"Difference in temperature of the pad surfaces, Average value","[9]; 1,000 μg/ml",+1.1 ± 0.11 °C
same,"Difference in thickness of control and test talipes, Average value","[9]; 1,000 μg/ml",+0.51 ± 0.064 mm
